Experimental data as given in patent US11098038B2, “Imidazole-based anticancer agents and derivatives thereof, and methods of making and using same” (The University of Toledo, priority 2017, dated 2021).

Tests used:
Format in all cases: cell-based
MOLT-4 = assay: NCI 60 screen, MOLT-4; conditions: Homo sapiens, Leukemia
Description: (§1) The compounds synthesized were tested at the National Cancer Institute (NCI) for anti-proliferative activity in the 60 human tumor cell line assay.

CAKI-1 = assay: NCI 60 screen, CAKI-1; conditions: Homo sapiens, Renal
Description: as §1

NCI-H226 = assay: NCI 60 screen, NCI-H226; conditions: Homo sapiens, Non-Small Cell Lung
Description: as §1

SN12C = assay: NCI 60 screen, SN12C; conditions: Homo sapiens, Renal
Description: as §1

OVCAR-4 = assay: NCI 60 screen, OVCAR-4; conditions: Homo sapiens, Ovarian
Description: as §1

NCI/ADR-RES = assay: NCI 60 screen, NCI/ADR-RES; conditions: Homo sapiens, Ovarian
Description: as §1

RXF393 = assay: NCI 60 screen, RXF393; conditions: Homo sapiens, RXF 393, Renal
Description: as §1

TK-10 = assay: NCI 60 screen, TK-10; conditions: Homo sapiens, Renal
Description: as §1

SF-295 = assay: NCI 60 screen, SF-295; conditions: Homo sapiens, CNS
Description: as §1

RPMI-8226 = assay: NCI 60 screen, RPMI-8226; conditions: Homo sapiens, Leukemia
Description: as §1

MCF7 = assay: NCI 60 screen, MCF7; conditions: Homo sapiens, Breast
Description: as §1

SR = assay: NCI 60 screen, SR; conditions: Homo sapiens, Leukemia
Description: as §1

UACC-257 = assay: NCI 60 screen, UACC-257; conditions: Homo sapiens, Melanoma
Description: as §1

NCI-H23 = assay: NCI 60 screen, NCI-H23; conditions: Homo sapiens, Non-Small Cell Lung
Description: as §1

MALME-3M = assay: NCI 60 screen, MALME-3M; conditions: Homo sapiens, Melanoma
Description: as §1

NCI-460 = assay: NCI 60 screen, NCI-460; conditions: Homo sapiens, Non-Small Cell Lung
Description: as §1

HS 578T = assay: NCI 60 screen, HS 578T; conditions: Homo sapiens, Breast
Description: as §1

HT29 = assay: NCI 60 screen, HT29; conditions: Homo sapiens, HT-29, Colon
Description: as §1

LOX IMVI = assay: NCI 60 screen, LOX IMVI; conditions: Homo sapiens, Melanoma
Description: as §1

SW-620 = assay: NCI 60 screen, SW-620; conditions: Homo sapiens, Colon
Description: as §1

NCI-322M = assay: NCI 60 screen, NCI-322M; conditions: Homo sapiens, Non-Small Cell Lung
Description: as §1

SMILES: O=C(Cc1ccc(/C=C/C(=O)c2ncc[nH]2)cc1)Nc1ccc(Cl)cc1 [Compound 25, (E)-2-(-4 (3-(1H-imidazol-2-yl)-3-oxoprop-1-en-1-yl)phenyl)-N-(4-chlorophenyl)acetamide]
- GI50 (MOLT-4): 1.8 µM
- GI50 (CAKI-1): 4.88 µM
- GI50 (NCI-H226): 7.5 µM
- GI50 (SN12C): 2.4 µM
- GI50 (OVCAR-4): 4.11 µM
- GI50 (NCI/ADR-RES): 5.02 µM
- GI50 (RXF393): 3.05 µM
- GI50 (TK-10): 5.41 µM
- GI50 (SF-295): 3.33 µM
- GI50 (RPMI-8226): 0.857 µM
- GI50 (MCF7): 0.742 µM
- GI50 (SR): 0.798 µM
- GI50 (UACC-257): 7.24 µM
- GI50 (NCI-H23): 2.97 µM
- GI50 (MALME-3M): 6.24 µM
- GI50 (NCI-460): 3.43 µM
- GI50 (HS 578T): 18.8 µM
- GI50 (HT29): 0.886 µM
- GI50 (LOX IMVI): 0.87 µM
- GI50 (SW-620): 1.43 µM
- GI50 (NCI-322M): 4 µM
